According to ChEMBL document CHEMBL1201862, “PubChem BioAssay data set” (2004):
Calls of active or inactive are those of the source.

Tests used:
[1] = molecular target: T1, Heat shock factor protein 1 (Mus musculus, UniProt P38532); assay: enhancement of HSF1-driven luciferase signal – cell-based, NIH3T3, luminescence, dose retest, confirmation (AID 435004); format: functional;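 also: stress induced by proteasome inhibitor MG132 added 30 min after compound; luciferase reporter driven by HSF1 response element in NIH3T3 cells; actives raise luminescence as potentiators of the MG132 stress response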
T1 sequence (P38532 whole entry): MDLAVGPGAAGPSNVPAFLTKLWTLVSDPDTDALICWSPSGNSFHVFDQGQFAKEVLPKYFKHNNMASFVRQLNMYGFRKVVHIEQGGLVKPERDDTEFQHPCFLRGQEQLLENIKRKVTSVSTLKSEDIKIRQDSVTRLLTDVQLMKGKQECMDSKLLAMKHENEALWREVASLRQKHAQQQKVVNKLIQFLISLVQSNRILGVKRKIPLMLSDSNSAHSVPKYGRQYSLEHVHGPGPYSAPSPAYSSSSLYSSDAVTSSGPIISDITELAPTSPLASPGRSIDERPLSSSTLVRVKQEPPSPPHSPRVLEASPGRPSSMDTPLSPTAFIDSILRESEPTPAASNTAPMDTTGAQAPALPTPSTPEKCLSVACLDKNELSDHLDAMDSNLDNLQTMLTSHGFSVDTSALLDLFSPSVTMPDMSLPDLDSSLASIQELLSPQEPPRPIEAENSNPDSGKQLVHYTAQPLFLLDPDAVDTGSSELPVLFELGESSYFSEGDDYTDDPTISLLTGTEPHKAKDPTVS

[2] = molecular target: T2, Polyadenylate-binding protein 1 (Homo sapiens, UniProt P11940); assay: MLLE binding blockers, Cy5 peptide tracer – biochemical, fluorescence polarization, Cy5-PAM2 peptide, secondary, miRNA deadenylation inhibitor project, dose response (AID 602260); format: functional; settings: read-out: IC50_Mean
[3] = molecular target: T2, Polyadenylate-binding protein 1; assay: MLLE domain peptide-binding blockers, IC50 – biochemical, fluorescence polarization, FITC-PAM2 peptide, dose response (AID 602259); format: functional; settings: read-out: IC50_Mean
[4] = luciferase reporter signal suppression in cells – H4 neuroglioma cells, luminescence, dose response (AID 1990); format: functional, cell-based
[5] = Luminescence Cell-Based Dose Response HTS to Identify Inhibitors of 5'UTR Stem-Loop Driven Prion Protein mRNA Translation in H4 Neuroglioblastoma Cells. [Related pubchem assays: 1827 (Project Summary), 1813 (Primary HTS)]; format: functional
[6] = alpha-synuclein stem-loop luciferase translation blockers – H4 neuroglioma cells, luminescence, confirmation (AID 1988); format: functional, cell-based
Cytochrome P450 3A4 = Cytochrome P450 3A4 (Homo sapiens, UniProt P08684);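 also: CYP3A4 tested as one member of a cytochrome P450 panel screen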
[7] = test system: Streptococcus sp. 'group A'; assay: Streptococcus pyogenes SK(-)GAS viability under kanamycin – luminescence, BacTiterGlo, confirmation, counter-screen for streptokinase expression inhibitor project, dose response (AID 1900); format: functional, organism-based
Streptokinase A = molecular target: T3, Streptokinase A (Streptococcus pyogenes serotype M1, UniProt P10520); assay: viability-normalized secreted streptokinase activity reduction – plasminogen activation absorbance, OD405, dose response (AID 1914); format: functional, Streptococcus pyogenes M1 GAS;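 also: secreted streptokinase activity via plasminogen activation per viability signal from cell pellet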
T3 sequence (P10520 whole entry): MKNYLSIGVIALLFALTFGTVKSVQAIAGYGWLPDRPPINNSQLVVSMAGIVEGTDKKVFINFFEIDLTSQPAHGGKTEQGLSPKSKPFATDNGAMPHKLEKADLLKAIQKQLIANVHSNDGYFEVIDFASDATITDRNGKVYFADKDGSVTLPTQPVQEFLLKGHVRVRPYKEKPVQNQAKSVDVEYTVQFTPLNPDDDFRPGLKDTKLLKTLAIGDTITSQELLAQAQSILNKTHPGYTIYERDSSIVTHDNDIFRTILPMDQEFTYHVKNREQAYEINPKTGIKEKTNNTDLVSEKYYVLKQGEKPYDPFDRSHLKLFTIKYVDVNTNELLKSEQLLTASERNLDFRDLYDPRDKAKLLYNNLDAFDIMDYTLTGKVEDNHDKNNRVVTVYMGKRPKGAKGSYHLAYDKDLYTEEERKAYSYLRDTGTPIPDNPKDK

Streptococcus = assay: GAS UMAA2166 growth inhibition – luminescence, BacTiterGlo, counter-screen for streptokinase expression inhibitor project, dose response (AID 1915); format: functional, organism-based;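 also: potency for reduction of bacterial viability or growth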
Cytochrome P450 2D6 = Cytochrome P450 2D6 (Homo sapiens, UniProt P10635);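 also: CYP2D6 member of a cytochrome P450 panel assay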
H9c2 = assay: cells; format: functional, cell-based; settings: Rattus norvegicus, H9c2, Myocardium;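 also: confirmatory concentration-response retest of ultra-high-throughput screening hits for modulation of myocardial damage; cell death induced by hydrogen peroxide oxidative stress; compound pretreatment for 60 min then peroxide exposure for 2 h; potency is for protecting the cells against peroxide damage rather than for killing them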
Cytochrome P450 2C19 = Cytochrome P450 2C19 (Homo sapiens, UniProt P33261); assay: Cytochrome panel assay with activity outcomes. Panel member name: p450-cyp2c19 Compounds with AC50 equal or less than 10 uM are considered active; format: functional; settings: read-out: AC50
[8] = Trypanosoma cruzi growth suppression in host cells – NIH3T3 host cells, beta-gal luminescence, confirmation (AID 2044); format: functional, cell-based;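 also: intracellular parasites grown in NIH/3T3 mouse fibroblasts as host cells; luminescent beta-galactosidase reporter signal from transgenic T. cruzi replicating inside host cells; inhibitors lower the luminescence signal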
[9] = NIH3T3 cell viability loss – ATP luminescence, mouse fibroblasts, counter-screen, dose response (AID 2010); format: functional, cell-based;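 also: cells exposed to compound for about 90 hours before reading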
INS1 = assay: INS-1E survival protection against cytokine death – cell-based, luminescence, retest, dose response (AID 449756); format: functional; settings: Rattus norvegicus;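 also: cell death triggered by IL-1 beta plus TNF-alpha plus IFN-gamma mixture; protective hits raise ATP signal compared with cytokine alone wells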
[10] = viability of uninfected HEp-2 cells – cell-based, HTS, cytotoxicity control for RSV inhibitor project, dose response (AID 2410); format: functional; settings: human respiratory syncytial virus

Sequence of Cytochrome P450 2C19 (P33261 whole entry): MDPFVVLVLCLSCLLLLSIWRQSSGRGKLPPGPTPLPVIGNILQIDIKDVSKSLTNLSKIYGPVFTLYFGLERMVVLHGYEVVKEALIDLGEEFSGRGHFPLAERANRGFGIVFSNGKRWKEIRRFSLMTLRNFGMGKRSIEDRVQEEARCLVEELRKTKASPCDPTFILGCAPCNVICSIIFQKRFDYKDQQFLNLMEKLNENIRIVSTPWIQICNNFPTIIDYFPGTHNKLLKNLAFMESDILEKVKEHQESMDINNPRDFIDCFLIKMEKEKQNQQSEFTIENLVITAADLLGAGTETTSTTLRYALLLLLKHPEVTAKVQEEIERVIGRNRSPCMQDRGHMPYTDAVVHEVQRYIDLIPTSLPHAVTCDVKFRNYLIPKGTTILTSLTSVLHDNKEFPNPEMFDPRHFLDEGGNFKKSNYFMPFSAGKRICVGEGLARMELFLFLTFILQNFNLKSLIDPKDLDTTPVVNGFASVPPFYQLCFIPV
T2 sequence (P11940 whole entry, the tested form may be a part): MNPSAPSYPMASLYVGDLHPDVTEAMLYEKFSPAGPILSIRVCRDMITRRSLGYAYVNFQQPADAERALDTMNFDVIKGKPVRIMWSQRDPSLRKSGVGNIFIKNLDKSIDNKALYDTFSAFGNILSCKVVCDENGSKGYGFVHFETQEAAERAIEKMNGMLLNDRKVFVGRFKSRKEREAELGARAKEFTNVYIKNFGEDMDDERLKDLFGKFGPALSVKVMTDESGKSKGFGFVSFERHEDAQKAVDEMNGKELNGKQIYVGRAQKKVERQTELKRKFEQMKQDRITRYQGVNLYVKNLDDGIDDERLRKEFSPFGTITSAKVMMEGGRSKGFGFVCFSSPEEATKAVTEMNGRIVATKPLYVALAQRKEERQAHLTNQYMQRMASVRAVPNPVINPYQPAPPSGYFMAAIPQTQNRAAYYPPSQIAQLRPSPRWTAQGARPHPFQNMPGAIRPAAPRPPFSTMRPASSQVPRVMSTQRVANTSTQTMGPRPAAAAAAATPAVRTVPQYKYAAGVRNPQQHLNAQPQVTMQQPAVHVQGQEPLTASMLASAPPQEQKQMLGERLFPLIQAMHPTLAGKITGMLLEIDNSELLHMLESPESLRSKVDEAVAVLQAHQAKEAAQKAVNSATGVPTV
Sequence of Cytochrome P450 3A4 (P08684 whole entry): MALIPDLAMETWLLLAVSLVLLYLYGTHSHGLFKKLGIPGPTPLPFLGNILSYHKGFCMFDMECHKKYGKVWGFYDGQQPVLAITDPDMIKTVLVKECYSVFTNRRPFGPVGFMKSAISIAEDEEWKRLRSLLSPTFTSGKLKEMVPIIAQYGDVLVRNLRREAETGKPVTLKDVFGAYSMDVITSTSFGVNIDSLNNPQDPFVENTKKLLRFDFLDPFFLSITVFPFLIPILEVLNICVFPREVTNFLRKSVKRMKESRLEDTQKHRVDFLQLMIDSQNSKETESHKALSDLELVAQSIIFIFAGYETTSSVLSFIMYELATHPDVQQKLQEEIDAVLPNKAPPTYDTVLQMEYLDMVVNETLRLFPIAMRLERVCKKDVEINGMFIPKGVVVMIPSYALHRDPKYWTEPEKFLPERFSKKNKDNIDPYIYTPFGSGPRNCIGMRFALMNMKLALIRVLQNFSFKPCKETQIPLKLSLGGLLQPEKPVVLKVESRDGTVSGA
Sequence of Cytochrome P450 2D6 (P10635 whole entry): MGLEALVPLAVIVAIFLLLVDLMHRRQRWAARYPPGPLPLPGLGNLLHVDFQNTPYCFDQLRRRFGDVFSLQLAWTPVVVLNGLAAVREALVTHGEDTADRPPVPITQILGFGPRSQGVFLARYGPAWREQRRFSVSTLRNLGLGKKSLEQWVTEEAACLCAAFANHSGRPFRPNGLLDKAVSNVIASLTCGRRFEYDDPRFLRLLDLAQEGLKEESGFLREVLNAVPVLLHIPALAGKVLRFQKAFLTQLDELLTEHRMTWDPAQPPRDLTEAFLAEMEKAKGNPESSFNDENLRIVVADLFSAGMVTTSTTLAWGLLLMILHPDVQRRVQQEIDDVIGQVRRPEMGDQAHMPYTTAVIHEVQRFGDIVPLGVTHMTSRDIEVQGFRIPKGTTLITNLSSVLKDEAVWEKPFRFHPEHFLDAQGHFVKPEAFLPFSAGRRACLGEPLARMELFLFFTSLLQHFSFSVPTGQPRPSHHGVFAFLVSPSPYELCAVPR

**Q.** Which EC50 [1] does the source give for `Cc1cc(/C=C(/C#N)c2cccc(Cl)c2)c(C)n1C` here?
**A.** Its EC50 is > 260 µM (inactive).

**Q.** Which results are given for `CCOC(=O)c1sc(=S)n(C)c1NC(=O)c1ccccc1Cl`?
**A.** IC50 [2]: > 66 µM (inactive); IC50 [3]: > 66 µM (inactive)

**Q.** For `COc1ccc(NC(=O)C(=O)NCC(c2ccco2)N2CCc3ccccc32)cc1` (centres undefined), which EC50 [4] is on record?
**A.** The EC50 was 104 µM (active).

**Q.** What about the EC50 [5] of the same compound?
**A.** The EC50 was 0.127 µM (active).

**Q.** And the EC50 [6]?
**A.** Its EC50 is 0.11 µM (active).

**Q.** Which AC50 (Cytochrome P450 3A4) does the source give for `NCCNS(=O)(=O)c1ccc(N)cc1` here?
**A.** Its AC50 is 5.01 µM (inconclusive).

**Q.** Which EC50 [1] does the source give for `O=[N+]([O-])c1cc([N+](=O)[O-])c(N2CCOCC2)cc1NCc1ccccc1` here?
**A.** Its EC50 is > 260 µM (inactive).

**Q.** Which EC50 [4] does the source give for `CC(=O)Nc1nc(NC(=O)/C=C/c2ccccc2)n(-c2ccccc2)n1` here?
**A.** Its EC50 is 14.2 µM (active).

**Q.** What about the EC50 [7] of the same compound?
**A.** The EC50 was 2.47 µM (active).

**Q.** What about the EC50 [5] of the same compound?
**A.** The EC50 was 13.7 µM (active).

**Q.** What about the EC50 [6] of the same compound?
**A.** The EC50 was 15.7 µM (active).

**Q.** And the EC50 (Streptokinase A)?
**A.** Its EC50 is > 150 µM (not active).

**Q.** What about the EC50 (Streptococcus) of the same compound?
**A.** Its EC50 is 33.9 µM (active).

**Q.** Which results are given for `CN(C)c1ccc(/N=N\c2cccc3ccoc23)cc1`?
**A.** AC50 (Cytochrome P450 2D6): 3.16 µM (inconclusive); AC50 (Cytochrome P450 3A4): 3.98 µM (inconclusive)

**Q.** For `Cc1ccc(C(=O)CSc2nc(O)c3ccccc3n2)cc1`, which IC50 (H9c2) is on record?
**A.** Its IC50 is > 79 µM (inactive).

**Q.** What does the source list for `Cc1cccc(OCCCC(=O)Nc2ccc(N3CCCCC3)cc2)c1`?
**A.** AC50 (Cytochrome P450 2C19): 0.355 µM (inconclusive); AC50 (Cytochrome P450 3A4): 7.08 µM (inconclusive)

**Q.** For `Cc1noc(C)c1C(=O)N1CCC2(CCCN(c3ccncc3)C2)CC1`, which AC50 (Cytochrome P450 3A4) is on record?
**A.** The AC50 was 31.6 µM (inconclusive).

**Q.** With `O=C(CSc1nc(O)c2ccccc2n1)N1CCCCC1` as the compound, how does the IC50 (H9c2) read?
**A.** Its IC50 is 10.5 µM (active).

**Q.** With `COc1ccc(NC(=O)CSc2nc(N)c3cc4c(nc3n2)CCCC4)cc1` as the compound, how does the EC50 [1] read?
**A.** Its EC50 is 53.3 µM (active).

**Q.** Which EC50 [4] does the source give for `O=C(Nc1cccc2ccccc12)C12CC3CC(C1)CC(n1cnc([N+](=O)[O-])n1)(C3)C2` here?
**A.** The EC50 was 12.9 µM (active).

**Q.** What about the EC50 [5] of the same compound?
**A.** Its EC50 is 12.4 µM (active).

**Q.** And the EC50 [6]?
**A.** The EC50 was > 60 µM (not active).

**Q.** With `COc1ccc(OC)c(NC(=O)CSC2=NCCS2)c1` as the compound, how does the IC50 [2] read?
**A.** Its IC50 is > 66 µM (inactive).

**Q.** What about the IC50 [3] of the same compound?
**A.** Its IC50 is > 66 µM (inactive).

**Q.** With `ON=C1c2ccccc2-c2ccccc21` as the compound, how does the EC50 [1] read?
**A.** The EC50 was > 260 µM (inactive).

**Q.** Which results are given for `COc1ccc(C(C)(C)C)cc1NC(=O)c1cncc(Br)c1`?
**A.** AC50 (Cytochrome P450 2C19): 10 µM (inconclusive); AC50 (Cytochrome P450 3A4): 11.2 µM (inconclusive)

**Q.** Which IC50 (H9c2) does the source give for `C1=C(c2ccccc2)CCN(c2nc3ccccc3n3cnnc23)C1` here?
**A.** Its IC50 is > 79 µM (inactive).

**Q.** Which results are given for `Cc1cc(N2CCN(C)CC2)ccc1NC(=O)c1cccc(S(=O)(=O)N2CCc3ccccc3C2)c1`?
**A.** EC50 [4]: 9.2 µM (active); EC50 [5]: > 120 µM (not active); EC50 [6]: > 120 µM (not active); EC50 [8]: 1.43 µM (active); EC50 [9]: 8.5 µM (active)

**Q.** With `O=C(CSc1nnc(-c2ccccc2)c(-c2ccccc2)n1)N1CCc2ccccc21` as the compound, how does the EC50 [1] read?
**A.** The EC50 was > 260 µM (inactive).

**Q.** Which AC50 (INS1) does the source give for `O=C(CN(Cc1ccco1)Cc1ccco1)Nc1cc(S(=O)(=O)N2CCCCC2)ccc1Cl` here?
**A.** Its AC50 is 7.48 µM (active).

**Q.** Which AC50 (Cytochrome P450 2C19) does the source give for `C=C(C)CN1CC[C@@]23c4c5ccc(O)c4O[C@H]2c2[nH]c4ccccc4c2C[C@]3(O)[C@@H]1C5` here?
**A.** Its AC50 is 3.16 µM (inconclusive).

**Q.** And the AC50 (Cytochrome P450 3A4)?
**A.** The AC50 was 31.6 µM (inconclusive).

**Q.** Which AC50 (Cytochrome P450 3A4) does the source give for `CO[C@H]1COC(=O)[C@H](C)COC(=O)[C@@H](Cc2ccccc2)NC(=O)C/C=C\[C@H]1C` here?
**A.** Its AC50 is 6.31 µM (inconclusive).

**Q.** What does the source list for `Cc1cc2cc(CNC(=O)c3ccc(Br)o3)ccc2n1C`?
**A.** IC50 [2]: > 66 µM (inactive); IC50 [3]: > 66 µM (inactive)

**Q.** Which CC50 [10] does the source give for `O=S(=O)(c1ccccc1)N1CCCC(c2nc(O)c3nnn(Cc4ccc5c(c4)OCCO5)c3n2)C1` (centres undefined) here?
**A.** Its CC50 is 16.9 µM (active).

**Q.** Which EC50 [4] does the source give for `CCCCCSc1nc2c(c(=O)[nH]c(=O)n2C)n1C(C)C` here?
**A.** Its EC50 is > 120 µM (not active).

**Q.** And the EC50 [5]?
**A.** Its EC50 is 16.5 µM (active).

**Q.** What about the EC50 [6] of the same compound?
**A.** Its EC50 is 12.5 µM (active).

**Q.** Which results are given for `Cc1cnc(CNc2ccnc(-c3ccccc3Cl)n2)cn1`?
**A.** AC50 (Cytochrome P450 2C19): 39.8 µM (inconclusive); AC50 (Cytochrome P450 3A4): 10 µM (inconclusive)
